By AC50 is commonly meant the concentration at which the activity in the assay is half-maximal.

Eleven compounds from ChEMBL document CHEMBL5291721, “A preclinical secondary pharmacology resource illuminates target-adverse drug reaction associations of marketed drugs” (Nat Commun, 2023) can be followed below.

Some targets named below: D(3) dopamine receptor (Homo sapiens, UniProt P35462); Melanocortin receptor 4 (Homo sapiens, UniProt P32245); Vasopressin V1a receptor (Homo sapiens, UniProt P37288).
Data set [1] has as its target Growth hormone secretagogue receptor type 1 (Homo sapiens, UniProt Q92847).
In data set [2] the target is Kappa-type opioid receptor (Homo sapiens, UniProt P41145).
The target in data set [3] is Sodium-dependent dopamine transporter (Homo sapiens, UniProt Q01959).
Data set [4] addresses Voltage-dependent L-type calcium channel subunit alpha-1C (Rattus norvegicus, UniProt P22002). It is filed as functional.
The target of data set [5] is T1, Type-1 angiotensin II receptor (Homo sapiens, UniProt P30556).
T1 sequence (P30556 whole entry): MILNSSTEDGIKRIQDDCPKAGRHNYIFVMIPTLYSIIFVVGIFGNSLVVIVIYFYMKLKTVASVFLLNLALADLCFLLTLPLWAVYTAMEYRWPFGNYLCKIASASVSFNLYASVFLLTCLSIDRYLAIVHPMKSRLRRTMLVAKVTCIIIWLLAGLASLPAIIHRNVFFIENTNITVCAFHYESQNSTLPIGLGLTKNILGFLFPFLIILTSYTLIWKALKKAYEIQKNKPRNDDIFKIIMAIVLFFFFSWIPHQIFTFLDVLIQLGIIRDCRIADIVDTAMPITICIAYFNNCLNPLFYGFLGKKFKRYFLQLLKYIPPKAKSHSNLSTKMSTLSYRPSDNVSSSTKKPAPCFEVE

Data set [6] has as its target T2, Muscarinic acetylcholine receptor M1 (Homo sapiens, UniProt P11229).
T2 sequence (P11229 whole entry): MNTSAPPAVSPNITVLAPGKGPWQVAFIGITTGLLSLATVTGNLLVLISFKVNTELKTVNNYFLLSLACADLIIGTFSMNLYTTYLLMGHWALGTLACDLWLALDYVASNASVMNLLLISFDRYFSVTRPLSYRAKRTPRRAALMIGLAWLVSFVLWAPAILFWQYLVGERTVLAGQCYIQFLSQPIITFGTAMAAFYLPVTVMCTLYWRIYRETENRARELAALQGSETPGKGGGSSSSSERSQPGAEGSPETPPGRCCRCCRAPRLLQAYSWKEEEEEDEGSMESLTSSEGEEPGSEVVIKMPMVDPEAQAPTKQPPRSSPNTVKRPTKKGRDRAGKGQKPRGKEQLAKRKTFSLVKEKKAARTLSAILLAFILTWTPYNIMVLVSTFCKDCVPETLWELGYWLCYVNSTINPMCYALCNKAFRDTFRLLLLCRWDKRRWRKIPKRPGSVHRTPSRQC
It is filed as functional.

The target in data set [7] is Voltage-gated inwardly rectifying potassium channel KCNH2 (Homo sapiens, UniProt Q12809). Type of data set: functional.
In the next data set the target is D(1A) dopamine receptor (Homo sapiens, UniProt P21728). It is filed as functional, cell-based.
The target of data set [8] is T3, Alpha-2A adrenergic receptor (Homo sapiens, UniProt P08913).
T3 sequence (P08913 whole entry): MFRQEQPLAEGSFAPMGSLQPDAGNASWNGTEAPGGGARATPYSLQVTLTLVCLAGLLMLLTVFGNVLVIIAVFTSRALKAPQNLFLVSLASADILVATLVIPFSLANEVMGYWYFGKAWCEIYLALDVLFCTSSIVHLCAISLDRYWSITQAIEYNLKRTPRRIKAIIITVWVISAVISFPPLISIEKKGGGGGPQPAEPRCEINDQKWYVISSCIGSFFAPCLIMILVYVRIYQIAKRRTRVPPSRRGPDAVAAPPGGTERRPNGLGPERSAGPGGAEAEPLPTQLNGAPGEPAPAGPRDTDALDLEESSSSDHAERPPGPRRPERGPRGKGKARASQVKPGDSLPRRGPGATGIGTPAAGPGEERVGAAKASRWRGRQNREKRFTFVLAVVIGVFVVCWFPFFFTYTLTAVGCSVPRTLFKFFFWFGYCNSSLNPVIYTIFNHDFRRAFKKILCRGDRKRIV
Type of data set: functional, cell-based.

The target of data set [9] is T4, 5-hydroxytryptamine receptor 3A (Homo sapiens, UniProt P46098).
T4 sequence (P46098 whole entry): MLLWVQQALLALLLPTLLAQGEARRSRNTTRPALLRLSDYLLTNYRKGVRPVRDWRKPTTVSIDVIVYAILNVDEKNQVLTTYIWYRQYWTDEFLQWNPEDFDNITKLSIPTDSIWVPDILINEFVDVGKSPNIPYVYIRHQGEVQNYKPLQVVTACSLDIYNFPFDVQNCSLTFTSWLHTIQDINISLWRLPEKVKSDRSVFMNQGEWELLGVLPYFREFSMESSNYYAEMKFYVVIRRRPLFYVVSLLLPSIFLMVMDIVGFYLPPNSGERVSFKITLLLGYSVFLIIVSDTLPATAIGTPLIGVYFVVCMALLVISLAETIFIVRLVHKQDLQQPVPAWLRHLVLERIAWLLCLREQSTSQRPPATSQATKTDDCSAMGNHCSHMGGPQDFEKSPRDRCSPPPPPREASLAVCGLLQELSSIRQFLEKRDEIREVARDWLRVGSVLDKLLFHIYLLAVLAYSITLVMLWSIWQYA
It is filed as functional.

The target in data set [10] is T5, Gamma-aminobutyric acid receptor subunit alpha-1 (Rattus norvegicus, UniProt P62813).
The target in data set [11] is T5, Gamma-aminobutyric acid receptor subunit alpha-1. It is filed as functional.
Data set [12] has as its target Beta-2 adrenergic receptor (Homo sapiens, UniProt P07550).
The target in a further data set is Cannabinoid receptor 1 (Homo sapiens, UniProt P21554). It is filed as functional, cell-based.
Also: assay procedure not described here.

Voltage-dependent L-type calcium channel subunit alpha-1C, sequence (P22002 whole entry): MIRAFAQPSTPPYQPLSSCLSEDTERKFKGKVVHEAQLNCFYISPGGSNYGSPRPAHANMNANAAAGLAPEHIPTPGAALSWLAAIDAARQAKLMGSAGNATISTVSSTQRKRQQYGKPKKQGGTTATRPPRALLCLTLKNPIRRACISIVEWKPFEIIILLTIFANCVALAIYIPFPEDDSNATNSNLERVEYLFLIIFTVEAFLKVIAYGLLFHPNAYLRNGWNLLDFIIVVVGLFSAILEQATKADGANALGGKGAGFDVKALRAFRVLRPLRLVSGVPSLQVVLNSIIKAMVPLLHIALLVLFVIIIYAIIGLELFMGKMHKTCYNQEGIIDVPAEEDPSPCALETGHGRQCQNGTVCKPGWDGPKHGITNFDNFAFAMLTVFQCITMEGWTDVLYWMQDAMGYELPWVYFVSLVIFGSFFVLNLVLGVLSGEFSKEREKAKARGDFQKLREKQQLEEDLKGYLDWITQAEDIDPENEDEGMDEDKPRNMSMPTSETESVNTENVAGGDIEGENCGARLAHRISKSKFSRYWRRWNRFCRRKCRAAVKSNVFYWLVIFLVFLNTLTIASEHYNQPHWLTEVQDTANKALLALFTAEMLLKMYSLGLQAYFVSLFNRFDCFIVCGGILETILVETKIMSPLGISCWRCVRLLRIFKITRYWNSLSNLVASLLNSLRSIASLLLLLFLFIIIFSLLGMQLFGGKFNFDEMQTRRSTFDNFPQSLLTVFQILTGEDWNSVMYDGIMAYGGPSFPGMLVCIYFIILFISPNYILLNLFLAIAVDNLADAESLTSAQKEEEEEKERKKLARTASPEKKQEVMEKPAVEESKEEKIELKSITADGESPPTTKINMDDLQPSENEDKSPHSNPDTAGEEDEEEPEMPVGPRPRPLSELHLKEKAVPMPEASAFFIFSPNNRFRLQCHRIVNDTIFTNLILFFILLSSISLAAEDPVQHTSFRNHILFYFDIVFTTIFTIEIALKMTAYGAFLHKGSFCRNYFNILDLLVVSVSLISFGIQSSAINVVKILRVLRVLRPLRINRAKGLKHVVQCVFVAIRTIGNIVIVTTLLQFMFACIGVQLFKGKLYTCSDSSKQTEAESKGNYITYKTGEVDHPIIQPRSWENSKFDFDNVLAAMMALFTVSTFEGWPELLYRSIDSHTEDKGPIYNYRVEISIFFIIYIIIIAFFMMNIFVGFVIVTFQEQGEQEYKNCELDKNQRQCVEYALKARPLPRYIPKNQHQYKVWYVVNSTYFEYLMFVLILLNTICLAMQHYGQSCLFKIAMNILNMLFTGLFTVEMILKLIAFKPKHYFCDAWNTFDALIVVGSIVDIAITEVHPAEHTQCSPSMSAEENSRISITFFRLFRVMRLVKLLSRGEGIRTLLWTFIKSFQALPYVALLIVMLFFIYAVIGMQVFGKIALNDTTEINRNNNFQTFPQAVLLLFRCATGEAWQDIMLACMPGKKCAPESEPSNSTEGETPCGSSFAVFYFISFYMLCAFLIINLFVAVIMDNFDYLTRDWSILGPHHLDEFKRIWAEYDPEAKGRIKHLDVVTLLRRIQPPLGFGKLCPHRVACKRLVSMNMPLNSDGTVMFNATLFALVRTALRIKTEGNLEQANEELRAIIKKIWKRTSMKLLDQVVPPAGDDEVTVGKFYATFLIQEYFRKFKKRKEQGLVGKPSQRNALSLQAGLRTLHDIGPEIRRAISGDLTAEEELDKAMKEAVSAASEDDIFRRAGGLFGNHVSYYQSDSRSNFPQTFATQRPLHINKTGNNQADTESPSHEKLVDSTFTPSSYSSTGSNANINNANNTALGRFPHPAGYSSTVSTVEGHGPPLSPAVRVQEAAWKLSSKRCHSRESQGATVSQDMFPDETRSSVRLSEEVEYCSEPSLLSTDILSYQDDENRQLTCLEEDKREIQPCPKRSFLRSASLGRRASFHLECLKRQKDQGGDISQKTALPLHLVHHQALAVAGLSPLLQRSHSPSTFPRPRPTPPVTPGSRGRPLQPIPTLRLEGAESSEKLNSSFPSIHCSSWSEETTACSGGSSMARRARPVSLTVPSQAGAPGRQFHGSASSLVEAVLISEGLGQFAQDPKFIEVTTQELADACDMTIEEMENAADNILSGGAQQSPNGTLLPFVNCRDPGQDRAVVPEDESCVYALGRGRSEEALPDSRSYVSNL
Sodium-dependent dopamine transporter, sequence (Q01959 whole entry): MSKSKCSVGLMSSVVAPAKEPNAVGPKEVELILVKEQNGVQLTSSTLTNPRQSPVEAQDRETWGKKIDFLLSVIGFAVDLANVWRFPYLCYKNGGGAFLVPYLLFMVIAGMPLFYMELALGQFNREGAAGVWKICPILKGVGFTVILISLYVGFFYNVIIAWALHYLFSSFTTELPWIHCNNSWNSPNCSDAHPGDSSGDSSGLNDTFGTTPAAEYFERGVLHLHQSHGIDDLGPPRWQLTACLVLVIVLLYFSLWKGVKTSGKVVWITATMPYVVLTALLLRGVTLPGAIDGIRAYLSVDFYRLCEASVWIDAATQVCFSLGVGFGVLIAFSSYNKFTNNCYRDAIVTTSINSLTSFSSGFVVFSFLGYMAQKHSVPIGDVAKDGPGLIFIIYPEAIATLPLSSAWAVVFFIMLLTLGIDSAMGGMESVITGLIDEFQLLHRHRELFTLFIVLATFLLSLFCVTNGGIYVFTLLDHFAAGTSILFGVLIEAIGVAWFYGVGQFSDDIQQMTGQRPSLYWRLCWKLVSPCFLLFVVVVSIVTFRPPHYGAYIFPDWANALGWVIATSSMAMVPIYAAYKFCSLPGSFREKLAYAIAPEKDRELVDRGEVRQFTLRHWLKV
Vasopressin V1a receptor, sequence (P37288 whole entry): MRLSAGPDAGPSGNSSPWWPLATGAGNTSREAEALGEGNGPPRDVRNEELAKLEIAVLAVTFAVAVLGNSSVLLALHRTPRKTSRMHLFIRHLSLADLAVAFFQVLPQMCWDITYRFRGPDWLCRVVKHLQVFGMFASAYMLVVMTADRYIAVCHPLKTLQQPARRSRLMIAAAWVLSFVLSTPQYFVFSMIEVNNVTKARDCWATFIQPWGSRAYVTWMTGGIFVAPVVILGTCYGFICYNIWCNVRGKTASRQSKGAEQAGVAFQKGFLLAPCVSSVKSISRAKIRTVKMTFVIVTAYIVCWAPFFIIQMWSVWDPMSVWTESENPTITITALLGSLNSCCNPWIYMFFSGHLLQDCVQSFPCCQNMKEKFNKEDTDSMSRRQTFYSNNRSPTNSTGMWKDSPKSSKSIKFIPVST
D(3) dopamine receptor, sequence (P35462 whole entry): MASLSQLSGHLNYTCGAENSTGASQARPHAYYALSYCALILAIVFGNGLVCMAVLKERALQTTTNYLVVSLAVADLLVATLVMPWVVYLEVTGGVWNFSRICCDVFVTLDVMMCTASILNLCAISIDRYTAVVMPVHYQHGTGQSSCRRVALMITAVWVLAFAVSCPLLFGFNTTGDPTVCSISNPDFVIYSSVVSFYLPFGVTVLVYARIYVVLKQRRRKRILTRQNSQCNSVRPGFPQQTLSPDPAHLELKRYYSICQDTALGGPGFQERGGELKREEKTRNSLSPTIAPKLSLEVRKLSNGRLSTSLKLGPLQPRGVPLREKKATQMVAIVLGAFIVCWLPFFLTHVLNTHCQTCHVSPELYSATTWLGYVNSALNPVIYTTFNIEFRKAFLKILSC
D(1A) dopamine receptor, sequence (P21728 whole entry): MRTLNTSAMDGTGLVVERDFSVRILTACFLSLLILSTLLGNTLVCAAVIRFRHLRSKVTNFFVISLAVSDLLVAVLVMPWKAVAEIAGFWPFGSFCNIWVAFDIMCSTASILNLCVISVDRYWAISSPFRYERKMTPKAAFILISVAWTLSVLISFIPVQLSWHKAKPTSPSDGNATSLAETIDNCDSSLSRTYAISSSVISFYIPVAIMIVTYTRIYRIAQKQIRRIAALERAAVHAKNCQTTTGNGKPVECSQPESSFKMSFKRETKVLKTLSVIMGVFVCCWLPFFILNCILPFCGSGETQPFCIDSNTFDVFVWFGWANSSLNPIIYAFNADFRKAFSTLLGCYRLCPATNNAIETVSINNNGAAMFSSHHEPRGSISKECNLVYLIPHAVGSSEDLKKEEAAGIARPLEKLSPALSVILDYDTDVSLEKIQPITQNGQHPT
T5 sequence (P62813 whole entry): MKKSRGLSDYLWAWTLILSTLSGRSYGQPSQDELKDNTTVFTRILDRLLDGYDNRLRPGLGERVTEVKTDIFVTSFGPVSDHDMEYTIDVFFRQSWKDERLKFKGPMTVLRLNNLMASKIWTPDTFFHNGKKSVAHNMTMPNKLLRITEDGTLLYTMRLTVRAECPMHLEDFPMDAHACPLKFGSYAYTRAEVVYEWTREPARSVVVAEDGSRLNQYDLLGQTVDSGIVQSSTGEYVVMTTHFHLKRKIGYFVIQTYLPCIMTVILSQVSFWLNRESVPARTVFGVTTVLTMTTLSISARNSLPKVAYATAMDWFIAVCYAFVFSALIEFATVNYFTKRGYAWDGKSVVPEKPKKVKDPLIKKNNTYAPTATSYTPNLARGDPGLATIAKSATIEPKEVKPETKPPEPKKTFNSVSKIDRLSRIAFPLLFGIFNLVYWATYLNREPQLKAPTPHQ
Cannabinoid receptor 1, sequence (P21554 whole entry): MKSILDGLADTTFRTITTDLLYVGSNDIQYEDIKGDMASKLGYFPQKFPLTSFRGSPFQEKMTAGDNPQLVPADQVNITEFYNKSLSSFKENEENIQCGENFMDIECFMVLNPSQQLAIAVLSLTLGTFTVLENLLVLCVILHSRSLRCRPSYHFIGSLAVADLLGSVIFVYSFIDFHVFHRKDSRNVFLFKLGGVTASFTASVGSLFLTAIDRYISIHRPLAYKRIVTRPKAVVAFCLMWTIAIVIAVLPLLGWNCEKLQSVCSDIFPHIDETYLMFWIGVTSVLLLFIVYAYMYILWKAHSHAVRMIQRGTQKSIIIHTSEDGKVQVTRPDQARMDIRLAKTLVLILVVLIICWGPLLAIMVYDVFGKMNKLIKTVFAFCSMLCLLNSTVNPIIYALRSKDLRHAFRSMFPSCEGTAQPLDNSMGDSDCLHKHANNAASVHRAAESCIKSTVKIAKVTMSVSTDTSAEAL

As for `O=C(O)CCCC[C@@H]1SC[C@@H]2NC(=O)N[C@@H]21` [BIOTIN], the AC50 in data set [1] was greater than 10 µM; in data set [2] it was greater than 10 µM; on D(3) dopamine receptor it was greater than 30 µM; in data set [3], greater than 10 µM; in data set [4], greater than 10 µM; in [5], greater than 10 µM. The AC50 in data set [6] is greater than 10 µM; in data set [7] (read-out: AC50) it was greater than 30 µM; on D(1A) dopamine receptor, greater than 10 µM; in [8], greater than 10 µM; in [9] it was greater than 30 µM; at Melanocortin receptor 4, greater than 10 µM.

On to `CN(Cc1ccc(C(C)(C)C)cc1)Cc1cccc2ccccc12` [BUTENAFINE], for which the AC50 in [1] is greater than 10 µM; in data set [2] it was greater than 10 µM; at D(3) dopamine receptor it was greater than 30 µM; in data set [3], greater than 10 µM; in [10], greater than 10 µM; in data set [4], greater than 10 µM. Further, the AC50 in data set [11] was greater than 10 µM; in data set [12] it was greater than 10 µM; in [5], greater than 10 µM; in data set [7] (read-out: AC50), 2.8 µM; at D(1A) dopamine receptor, greater than 10 µM; in data set [8], greater than 10 µM. The figures for the AC50 (in [9]; at Melanocortin receptor 4) were greater than 30 µM and greater than 10 µM, respectively.

For `CC1CC(OC(=O)C(O)c2ccccc2)CC(C)(C)C1` (stereo unspecified) [CYCLANDELATE], the AC50 in data set [1] was greater than 10 µM; in [2], greater than 10 µM; on D(3) dopamine receptor, greater than 30 µM; in data set [3], greater than 30 µM; in data set [10], greater than 10 µM; in data set [4] it was greater than 10 µM. The AC50 in [11] was greater than 10 µM; in data set [12] it was greater than 10 µM; in data set [5], greater than 10 µM; in [7] (read-out: AC50), greater than 30 µM; on D(1A) dopamine receptor it was greater than 10 µM; in data set [8], greater than 10 µM. Moreover, the AC50 is greater than 30 µM in data set [9] and greater than 10 µM at Melanocortin receptor 4.

With `OCCN(CCO)c1nc(N2CCCCC2)c2nc(N(CCO)CCO)nc(N3CCCCC3)c2n1` [DIPYRIDAMOLE], the AC50 (in [1]; in data set [2]; on D(3) dopamine receptor; in [3]; in [10]; in [4]) was greater than 30 µM throughout. Also, the AC50 was 1.4 µM in data set [11]; greater than 30 µM in [5]; greater than 30 µM in data set [7] (read-out: AC50); greater than 30 µM on D(1A) dopamine receptor; greater than 30 µM in data set [8]; greater than 30 µM in data set [9]. At Melanocortin receptor 4, this compound gave an AC50 greater than 30 µM.

As to `CCC1(C)CC(=O)NC1=O` (stereo unspecified) [ETHOSUXIMIDE], the AC50 is greater than 10 µM in data set [1]; greater than 10 µM in data set [2]; greater than 30 µM at D(3) dopamine receptor; greater than 10 µM in data set [3]; greater than 10 µM in [10]; greater than 10 µM in data set [4]. The AC50 is greater than 10 µM in [11]; greater than 10 µM in [12]; greater than 10 µM in data set [5]; greater than 30 µM in [7] (read-out: AC50); greater than 30 µM on D(1A) dopamine receptor; greater than 10 µM in data set [8]. Besides, the AC50 is greater than 30 µM in data set [9] and greater than 10 µM on Melanocortin receptor 4.

Consider `CCN(CC)CC(=O)Nc1c(C)cccc1C` [LIDOCAINE], for which the AC50 in data set [1] is greater than 30 µM; in [5], greater than 10 µM; at Melanocortin receptor 4, 22.7 µM; at Vasopressin V1a receptor, greater than 10 µM.

In the case of `Nc1cc(N2CCCCC2)nc(N)[n+]1[O-]` [MINOXIDIL], the AC50 is greater than 30 µM in [1]; greater than 10 µM in data set [2]; greater than 30 µM on D(3) dopamine receptor; greater than 30 µM in data set [3]; greater than 10 µM in [10]; greater than 10 µM in [4]. In addition, the concentration at half-maximal activity (AC50) in data set [11] is greater than 10 µM; in [12], greater than 30 µM; in data set [5] it was greater than 30 µM; on D(1A) dopamine receptor, greater than 30 µM; in data set [8] it was greater than 10 µM; in data set [9] it was greater than 30 µM. This compound gave an AC50 at Melanocortin receptor 4 greater than 30 µM.

As for `CC(C)(C)NCC(O)COc1cccc2c1CC(O)C(O)C2` (stereo unspecified) [NADOLOL], the AC50 is greater than 10 µM in [1]; greater than 10 µM in [2]; greater than 30 µM on D(3) dopamine receptor; greater than 10 µM in data set [3]; greater than 30 µM on Cannabinoid receptor 1; greater than 10 µM in data set [10]. The AC50 in data set [4] is greater than 10 µM; in data set [11], greater than 10 µM; in data set [5], greater than 10 µM; in data set [7] (read-out: AC50) it was greater than 30 µM; at D(1A) dopamine receptor it was greater than 10 µM; in data set [8], greater than 10 µM. Further, the values for the AC50 (in data set [9]; on Melanocortin receptor 4) were greater than 30 µM and greater than 10 µM, respectively.

On to `CCCCOC(=O)C(=O)Nc1cccc(-c2nnn[nH]2)c1` [TAZANOLAST], for which the AC50 (in data set [1]; in data set [2]; on D(3) dopamine receptor; in [3]; at Cannabinoid receptor 1; in [10]) was greater than 30 µM in each case. Besides, the AC50 in [4], in data set [11], in data set [12], in [5], in data set [6] and in data set [7] (read-out: AC50) was greater than 30 µM in each case. In addition, the AC50 (at D(1A) dopamine receptor; in data set [8]; in data set [9]; at Vasopressin V1a receptor) was greater than 30 µM in each case.

Consider `CC1=C(/C=C/C(C)=C/C=C/C(C)=C/C(=O)Oc2c(C)c(C)c3c(c2C)CCC(C)(CCCC(C)CCCC(C)CCCC(C)C)O3)C(C)(C)CCC1` (stereo unspecified) [TRETINOIN TOCOFERIL], for which the AC50 (in data set [1]; in [2]; on D(3) dopamine receptor; in [3]; on Cannabinoid receptor 1; in [10]) was greater than 30 µM each time. Also, the AC50 in [4], in data set [11], in [12], in data set [5], in data set [6] and in data set [7] (read-out: AC50) was greater than 30 µM each time. The AC50 (on D(1A) dopamine receptor; in data set [8]; in data set [9]; at Vasopressin V1a receptor) was greater than 30 µM throughout.

With SITOSTEROLS, the AC50 (in data set [1]; in [2]; at D(3) dopamine receptor; in data set [3]; at Cannabinoid receptor 1; in data set [10]) was greater than 30 µM each time. Further, the AC50 in data set [4] is greater than 30 µM; in [11] it was greater than 30 µM; in data set [12], greater than 30 µM; in [5] it was greater than 30 µM; in data set [6] it was greater than 30 µM; in data set [7] (human, cellular components), greater than 30 µM. For the same compound, the AC50 (at D(1A) dopamine receptor; in [8]; in data set [9]; at Vasopressin V1a receptor) was greater than 30 µM each time.
